Data as given in patent US6930088B2, “Conformationally constrained backbone cyclized somatostatin analogs” (Peptor Ltd., priority 1998, dated 2005).
Entries after “also recorded” stand apart in the source; their conditions may differ.

What was measured:
SSTR-4 = molecular target: T1, SSTR-4 (Homo sapiens, UniProt P31391); assay: Inhibition of 125I-Tyr11-SRIF binding to membrane preparations expressing SSTR-4; conditions: SSTR-R4, read-out: Percent inhibition of SRIF-14 binding
T1 construct: expressed in transfected cells
T1 sequence (P31391 whole entry): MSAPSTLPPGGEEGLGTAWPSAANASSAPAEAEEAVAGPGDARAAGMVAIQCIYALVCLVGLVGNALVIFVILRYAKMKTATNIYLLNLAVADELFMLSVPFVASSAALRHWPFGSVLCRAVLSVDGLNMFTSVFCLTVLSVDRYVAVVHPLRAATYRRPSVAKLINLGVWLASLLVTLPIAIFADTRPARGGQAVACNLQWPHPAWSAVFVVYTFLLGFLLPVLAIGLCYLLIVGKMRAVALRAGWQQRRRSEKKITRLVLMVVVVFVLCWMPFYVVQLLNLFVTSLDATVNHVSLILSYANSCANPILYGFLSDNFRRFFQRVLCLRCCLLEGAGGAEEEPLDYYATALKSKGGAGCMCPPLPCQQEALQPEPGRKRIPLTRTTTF
Procedure: (§1) The somatostatin analogs were tested for their potency in inhibition of the binding of ^125I-Tyr^11-SRIF (based on the method described by Raynor et. al., Molecular Pharmacology, 1993, 43, 838-844) to membrane preparations expressing the transmembranal somatostatin receptors (SSTR-1, 2, 3, 4 or 5). The receptor preparations used for these tests were either from the cloned human receptors selectively and stably expressed in Chinese Hamster Ovary (CHO) cells or from cell lines naturally expressing the SSTRs. Typically, cell membranes were homogenated in Tris buffer in the presence of protease inhibitors and incubated for 30-40 minutes with ^125I-Tyr^11-SRIF with different concentrations of the tested sample. The binding reactions were filtered, the filters were washed and the bound radioactivity was counted in gamma counter. Non specific binding was defined as the radioactivity remaining bound in the presence of 1 μM unlabeled SRIF-14.
(§2) In order to validate positive signals of the binding tests, and to eliminate non-specific signals, samples of irrelevant peptides, such as GnRH, that were synthesized and handled using the same procedures, were tested in the same assays as negative control samples. These samples had no binding activity in any of the assays. Results are shown below in Tables 5 and 6 and FIG. 1.

SSTR-5 = molecular target: T2, SSTR-5 (Homo sapiens, UniProt P35346); assay: Inhibition of 125I-Tyr11-SRIF binding to membrane preparations expressing SSTR-5; conditions: read-out: Percent inhibition of SRIF-14 binding
T2 construct: expressed in transfected cells
T2 sequence (P35346 whole entry): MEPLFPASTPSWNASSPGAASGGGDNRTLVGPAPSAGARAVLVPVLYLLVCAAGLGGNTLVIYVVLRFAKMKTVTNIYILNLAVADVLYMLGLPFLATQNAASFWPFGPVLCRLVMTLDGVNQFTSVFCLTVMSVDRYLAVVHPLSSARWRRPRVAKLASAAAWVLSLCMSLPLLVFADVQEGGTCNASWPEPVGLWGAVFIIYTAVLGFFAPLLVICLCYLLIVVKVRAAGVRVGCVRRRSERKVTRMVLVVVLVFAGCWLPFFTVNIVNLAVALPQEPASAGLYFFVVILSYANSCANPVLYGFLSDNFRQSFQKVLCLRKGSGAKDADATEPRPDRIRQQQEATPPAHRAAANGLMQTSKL
Procedure: (§3) The receptor preparations used for these tests were either from the cloned human receptors selectively and stably expressed in Chinese Hamster Ovary (CHO) cells or from cell lines naturally expressing the SSTRs. […] The binding reactions were filtered, the filters were washed and the bound radioactivity was counted in gamma counter. Non specific binding was defined as the radioactivity remaining bound in the presence of 1 μM unlabeled SRIF-14.
as §2

[1] = tested on: somatostatin receptors (SSTR-1, 2, 3, 4 or 5); assay: Somatostatin receptor subtype selectivity of binding; design: species or system human; conditions: in words
Procedure: as §1, §2

Opiate receptors [2] = assay: Guinea-Pig Ileum met-Enkephalin-evoked twitch contraction; conditions: preliminary results
[3] = tested on: human peripheral blood lymphocytes (PBL); assay: Human PBL proliferation assay (mitogenicity); type: cell-based; conditions: PBL proliferation assays
Source text: PTR 3173 was furthermore found to be not mitogenic for human lymphocytes in human peripheral blood lymphocytes (PBL) proliferation assays.

SSTR-2 = molecular target: T3, SSTR-2 (Homo sapiens, UniProt P30874); assay: Inhibition of 125I-Tyr11-SRIF binding to membrane preparations expressing SSTR-2; conditions: read-out: Percent inhibition of SRIF-14 binding
T3 construct: expressed in transfected cells
T3 sequence (P30874 whole entry): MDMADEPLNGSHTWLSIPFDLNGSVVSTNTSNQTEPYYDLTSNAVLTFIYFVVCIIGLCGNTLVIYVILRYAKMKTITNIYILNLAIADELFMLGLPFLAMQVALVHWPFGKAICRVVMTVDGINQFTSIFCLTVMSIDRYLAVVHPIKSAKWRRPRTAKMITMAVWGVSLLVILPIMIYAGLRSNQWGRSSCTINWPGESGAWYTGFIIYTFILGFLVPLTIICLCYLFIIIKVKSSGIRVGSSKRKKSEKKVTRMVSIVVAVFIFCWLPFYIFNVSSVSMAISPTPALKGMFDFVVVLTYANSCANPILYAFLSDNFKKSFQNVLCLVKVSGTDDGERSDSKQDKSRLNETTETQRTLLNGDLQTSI
Procedure: as §3, §2

[4] = Initial safety testing in rodents; type: in vivo; conditions: dose 10,000-fold higher then the efficacious dose for inhibiting Growth hormone release
Procedure: (§4) PTR 3173 was tested in various species for its initial safety properties. Under the European Pharmacopoeia requirements for safety testing, it was declared a safe drug candidate at this stage of development.

SSTR-3 = molecular target: T4, SSTR-3 (Homo sapiens, UniProt P32745); assay: Inhibition of 125I-Tyr11-SRIF binding to membrane preparations expressing SSTR-3; conditions: read-out: Percent inhibition of SRIF-14 binding
T4 construct: expressed in transfected cells
T4 sequence (P32745 whole entry): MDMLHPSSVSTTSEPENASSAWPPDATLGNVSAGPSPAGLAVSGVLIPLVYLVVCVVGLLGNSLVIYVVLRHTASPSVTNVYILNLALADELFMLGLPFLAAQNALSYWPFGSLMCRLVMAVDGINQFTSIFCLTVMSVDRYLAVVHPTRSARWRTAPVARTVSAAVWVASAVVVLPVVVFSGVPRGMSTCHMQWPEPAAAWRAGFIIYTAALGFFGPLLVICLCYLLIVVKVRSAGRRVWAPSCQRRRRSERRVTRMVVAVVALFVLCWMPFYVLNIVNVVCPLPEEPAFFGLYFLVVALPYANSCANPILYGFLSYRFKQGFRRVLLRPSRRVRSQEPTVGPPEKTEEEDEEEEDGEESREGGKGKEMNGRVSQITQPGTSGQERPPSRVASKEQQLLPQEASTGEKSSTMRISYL
Procedure: as §1, with “Typically, cell membranes were homogenated in Tris buffer in the presence of protease inhibitors and incubated for 30-40 minutes with ^125I-Tyr^11-SRIF with different concentrations of the tested sample.” left out
as §2

glucagon release = assay: In-vivo effect on glucagon release; design: species or system Wistar male rats
Procedure: In-vivo determination of the release of glucogon as a result of peptide administration was measured in Wistar male rats.
Time course profiles for glucagon release under constant experimental conditions were measured.
Male Wistar rats were fasted overnight. Animals were anesthetized with Nembutal (IP, 60 mg/kg). Ten minutes after anesthesia, drugs were administrated S.C. at 0.01-100 microgram/kg dose. Stimulation of glucagon secretion was performed by I.V. administration of L-arginine, 0.5 g/kg, 5 minutes before blood collection from portal vein. Hormone concentration was measured by RIA.

[5] = Initial safety testing in dogs; type: in vivo; conditions: dose 10,000-fold higher then the efficacious dose for inhibiting Growth hormone release
Procedure: as §4

Opiate receptors [6] = assay: NovaScreen nonspecific binding, Opiate receptors; conditions: tested at 100 nM; FIG. 2
Source text: NovaScreen (Hanover, Md.) performed an assessment for nonspecific binding to various G-protein coupled receptor families. Binding studies to Neurokinin, Opiate and Muscarinic receptors were based on a comparison between the native hormone Somatostatin, Ocreotide and PTR 3173.

[7] = tested on: CHO cells expressing human cloned SST-R5; assay: In-vitro cell-growth inhibition; type: cell-based
Procedure: Pharmacological evaluation of growth inhibition was performed utilizing CHO cells expressing human cloned SST-R5.

Compound `C[C@@H](O)[C@@H]1NC(=O)[C@H](CCCCN)NC(=O)[C@@H](Cc2c[nH]c3ccccc23)NC(=O)[C@H](Cc2c[nH]c3ccccc23)NC(=O)[C@H](Cc2ccccc2)NC(=O)CCCNC(=O)CCCN(CC(N)=O)C(=O)[C@H](Cc2ccccc2)NC1=O` [PTR 3173, GABA*-Phe-Trp-(D)Trp-Lys-Thr-Phe-Gly(C3)-X] has an inhibition at 1 µM (SSTR-4; 10^−6 M) of 5%, an inhibition at 0.1 µM (SSTR-4; 10^−7 M) of 5% and an inhibition at 0.01 µM (SSTR-4; 10^−8 M) of 0%. For the same compound, the inhibition at 0.001 µM (SSTR-4; 10^−9 M) was 0%, the inhibition at 0.0001 µM (SSTR-4; 10^−10 M) was 0% and the inhibition at 10 pM (SSTR-4; 10^−11 M) was 0%. For the same compound, the inhibition at 10 pM (SSTR-5) was 20%, the inhibition at 0.0001 µM (SSTR-5) was 48% and the inhibition at 0.001 µM (SSTR-5) was 63%. For the same compound, the inhibition at 0.01 µM (SSTR-5) was 82%, the inhibition at 0.1 µM (SSTR-5) was 95% and the inhibition at 1 µM (SSTR-5) was 95%. The “somatostatin receptor subtype selectivity” value [1] was “selective for receptors 2 and 5; also recorded: improved selectivity of binding to the SST receptor subtype SST-R2 and SST-R5”, the “somatostatin receptor subtype selectivity” value ([1]; listed as PTR-3173) was “SST-R2+SST-R5” and the “effect on met-Enkephalin-evoked twitch contraction” value (Opiate receptors [2]) was “did not affect met-Enkephalin-evoked twitch contraction”. For the same compound, the “mitogenicity for human lymphocytes” value [3] was “not mitogenic”, the inhibition at 10 pM (SSTR-2) was 15% and the inhibition at 0.0001 µM (SSTR-2) was 30%. It also gave an inhibition at 0.001 µM (SSTR-2) of 42%, an inhibition at 0.01 µM (SSTR-2) of 80% and an inhibition at 0.1 µM (SSTR-2) of 95%. The inhibition at 1 µM (SSTR-2) was 96%, the toxicity signs [4] was “No toxicity signs” and the inhibition at 10 pM (SSTR-3) was 2%. It also gave an inhibition at 0.0001 µM (SSTR-3) of 1%, an inhibition at 0.001 µM (SSTR-3) of 1% and an inhibition at 0.01 µM (SSTR-3) of 4%. For the same compound, the inhibition at 0.1 µM (SSTR-3) was 50%, the inhibition at 1 µM (SSTR-3) was 89% and the “effect on glucagon levels compare to control” value (glucagon release; 100 micrograms per kilogram, FIG. 4) was “statistically significant difference in glucagon levels compare to control”. The “Glucagon ID50” value (glucagon release; Table 4, physiological selectivity) was >0.1 mg/kg, the “effect on glucagon (general statement)” value (glucagon release; in words, no dose stated) was “considerably lower affect on the release of glucagon than Octreotide; also recorded: much less activity on glucagon” and the “GH Glucagon” value (glucagon release; ratio of ID50 values, Table 4) was >1,000. For the same compound, the toxicity signs [5] was “No toxicity signs”, the “binding to Opiate receptors” value (Opiate receptors [6]) was “did not bind” and the growth inhibition [7] was “significant growth inhibition; also recorded: considerably higher potency of growth inhibition compared to the native hormone and the drug Octreotide”.
